In paper PMC10817097, “Caffeic Acid Phosphanium Derivatives: Potential Selective Antitumor, Antimicrobial and Antiprotozoal Agents” (International Journal of Molecular Sciences, 2024) one finds IC50, MIC and MFC data, which are given here for five compounds.

≈ marks a conversion by molar mass, not a printed value.

Format in all cases: cell-based
For test [1], the system named is Jurkat (human leukemic T cell lymphoma). Description: MTS cell proliferation/viability assay. The settings on record: 72 h. The protocol:
(§1) The human cancer cell line HCT116 (human colorectal adenocarcinoma), HeLa (human cervical adenocarcinoma), Jurkat (human leukemic T cell lymphoma), and MDA-MB-231 (human mammary gland adenocarcinoma, triple-negative) were cultured in RPMI 1640 medium (Biosera, Kansas City, MO, USA). MCF-7 (human breast adenocarcinoma), A2058 (human metastatic melanoma), PANC-1 (human pancreatic adenocarcinoma), and NIH 3T3 (murine fibroblasts) cell lines were maintained in a growth medium consisting of high glucose Dulbecco’s Modified Eagle Medium with sodium pyruvate (Biosera, Kansas City, MO, USA). MCF-10A cell line (human mammary gland epithelial cells) was maintained in a growth medium consisting of high glucose DMEM F12 Medium (Biosera, Kansas City, MO, USA) + Suppl. (insulin, EGF-[…], HC-hydrocortisone, choleratoxin all Sigma, Steinheim, Germany). The growth medium was supplemented with a 10% fetal bovine serum, penicillin (100 IU/mL), and streptomycin (100 μg/mL) (all Invitrogen, Carlsbad, CA, USA), and cells were maintained in an atmosphere containing 5% CO2 in humidified air at 37 °C. Cell viability, estimated by trypan exclusion, was greater than 95% before each experiment.
(§2) The metabolic activity colorimetric assay (MTS) was used to determine the effects of CA (c = 10–300 µM) and compounds CAP 6, CAP 8, CAP 10, and CAP 12 (c = 1–100 µM) on the metabolic activity of several cell lines. After 72 h of incubation, 10 µL of MTS (Promega, Madison, WI, USA) was added to each well according to the CellTiter 96® AQueous One Solution Cell Proliferation Assay protocol. After a minimum of 1 h incubation, the absorbance was measured at 490 nm using the automated Cytation^TM 3 Cell Imaging Multi-Mode Reader (Biotek, Winooski, VT, USA). The absorbance of the control wells was taken as 1.0 (100%), and the results were expressed as a fold of the control. All experiments were performed in triplicate. Ideal predictive IC50 values were calculated from MTS analyses-based concentration concentration-dependent trends.

Test [2] deals with HCT116 (human colorectal adenocarcinoma). In words: MTS cell proliferation/viability assay. To be noted: HCT-116, 72 h. The method, then:
as §1, §2

Test [3] has as its system MCF-7 (human breast adenocarcinoma). In words: MTS cell proliferation/viability assay. The settings on record: MCF7, MCF-7, MTS, 72 h. The protocol: as §1, §2
In test [4] the test system is PANC-1 (human pancreatic adenocarcinoma). In words: MTS cell proliferation/viability assay. To be noted: PANC-1, MTS, 72 h. The method, then: as §1, §2
In test [5] the test system is HeLa (human cervical adenocarcinoma). In words: MTS cell proliferation/viability assay. The settings on record: 72 h. The protocol:
as §1, §2

In test [6] the test system is MDA-MB-231 (human mammary gland adenocarcinoma). Description: MTS cell proliferation/viability assay. To be noted: MDA-MB-231, MTS, 72 h. The protocol:
as §1, §2

Test [7] deals with A2058 (human metastatic melanoma). In words: MTS cell proliferation/viability assay. To be noted: 72 h. The method, then: as §1, §2
In test [8] the test system is MCF-10A cell line (human mammary gland epithelial cells). In words: MTS cell proliferation/viability assay, control cells. To be noted: MCF-10A control cells, 72 h. The protocol: as §1, §2
The subject of test [9] is NIH 3T3 (murine fibroblasts). The description is as above. To be noted: Mus musculus, NIH3T3, NIH 3T3 control cells, 72 h. The method, then:
as §1, §2

In test [10] the test system is Candida albicans CCM 8267. Description: Broth dilution MIC and MFC for yeasts. To be noted: for MIC: CCM8267, C. albicans CCM 8267; for MFC: CCM8267, C. albicans CCM 8267, inactivating 99.9% of inoculum. The method, then:
The antimicrobial activity of caffeic acid and its semi-synthetic derivates was tested against Gram-positive (Staphylococcus aureus CCM 4750, methicillin-resistant; Staphylococcus aureus CCM 4223, methicillin-susceptible; Enterococcus faecalis CCM 4224) and Gram-negative bacteria (Pseudomonas aeruginosa CCM 3955; Escherichia coli CCM 3954; Klebsiella pneumoniae CCM 4415; Proteus mirabilis CCM 7188), and one strain of a yeast Candida albicans (CCM 8267). Microbial strains were purchased from the Czech Collection of Microorganisms, Brno, Czech Republic, and preserved in aliquots in cryoprotective media at −20 °C until the testing. Revival of cryoprotected bacteria took place by overnight cultivation on blood agar and an additional passage on blood agar. Minimal inhibitory concentrations (MIC) against bacteria were detected by broth microdilution test in sterile 96-well U-shaped microtiter plates (Roll s.a.s., Piove di Sacco, Italy) according to the EUCAST recommendations. The test was performed in 100 μL volumes in microtiter plate wells with a final bacterial concentration of 5 × 10^5 CFU·mL^−1. Antifungal activity testing was performed according to the EUCAST-recommended method for the determination of broth dilution minimum inhibitory concentrations of antifungal agents for yeasts, with some modifications. The final yeast concentration in the test wells was 10^4 CFU·mL^−1. The minimal bactericidal/fungicidal concentrations (MBC/MFC) were detected by point-inoculation of 5 μL aliquots from test wells without visible growth on solid agar media free of antimicrobials. Mueller–Hinton broth and agar were used for bacteria, and Sabouraud dextrose broth and agar for fungi (OXOID, Basingstoke, Hampshire, UK). The tested agents were dissolved in 50% ethanol, and serial dilutions were prepared in the test medium to obtain final concentrations ranging from 5000 to 5 μg·mL^−1, which corresponds to 27,753—54 μM for caffeic acid, 7251—14 μM for CAP 6, 6967—14 μM for CAP 8, 6705—13 μM for CAP 10 and 6462—13 μM for CAP 12. Wells with media free of bacteria served as sterility control and wells with bacteria without antimicrobial agents were used as growth control. The MIC was determined to be the lowest concentration of the antimicrobial agent inhibiting the growth of the tested microorganism, and the MBC/MFC was determined to be the lowest concentration, inactivating 99.9% of microbial inoculum. All tests were performed in three independent runs to exclude possible excessive values due to permissible measurement error.

Test [11] concerns tested cancer cell lines. Description: MTS assay, span over the tested cell lines. The settings on record: Homo sapiens, 72 h. The method, then: as §1, §2

In general, IC50 refers to the point on the concentration scale where inhibition reaches its midpoint. A higher IC50 goes with a need for much substance. Usually MIC stands for the lowest concentration found to suppress growth. Low values mean a more susceptible organism, high ones a less susceptible organism. For orientation: MFC means the smallest concentration meeting the test's criterion for killing the fungus. Higher therefore signals weaker fungicidal potency. As to `O=C(O)C=Cc1ccc(O)c(O)c1` [CA, 3-(3,4-dihydroxyphenyl)-2-propenoic acid, reference compound], the concentration for half-maximal inhibition (IC50) in test [1], in [2], in [3], in test [4], in [5] and in test [6] was greater than 300 µM throughout. The IC50 in test [7], in [8], in [9] and in test [11] was greater than 300 µM in each case. Besides, in test [10], the MIC was 13900 µM (≈ 2500 µg/mL). The MFC in [10] came to 13900 µM (≈ 2500 µg/mL).
For `CC(=O)Oc1ccc(/C=C/C(=O)OCCCCCC[P+](c2ccccc2)(c2ccccc2)c2ccccc2)cc1OC(C)=O` [CAP 6, P,P,P-triphenyl-6-{(2E)-3-[3,4-(diacetyloxy)penyl]prop-2-enoyloxy}hexane-1-phosphanium bromide], the IC50 is 8.5 ± 0.2 µM in test [1]; 31 ± 0.4 µM in [2]; 44.5 ± 0.1 µM in [3]; 98.8 ± 2.4 µM in test [4]; 34 ± 1.8 µM in test [5]; 37 ± 0.3 µM in [6]. In addition, the IC50 in [7] was 30.5 ± 1.5 µM; in test [8], 53.7 ± 0.2 µM; in test [9], 44.4 ± 2.6 µM; in test [11], 30.5 to 44.5 µM. 57 µM was the least that counted as inhibitory in [10] (MIC). In test [10], this compound came in with an MFC of 57 µM.
`CC(=O)Oc1ccc(/C=C/C(=O)OCCCCCCCC[P+](c2ccccc2)(c2ccccc2)c2ccccc2)cc1OC(C)=O` [CAP 8, P,P,P-triphenyl-8-{(2E)-3-[3,4-(diacetyloxy)penyl]prop-2-enoyloxy}okctane-1-phosphanium bromide]: the IC50 is 6.9 ± 0.3 µM in test [1]; 8.3 ± 0.6 µM in test [2]; 48.7 ± 0.1 µM in [3]; greater than 100 µM in [4]; 7.1 ± 0.3 µM in [5]; 4.8 ± 0.5 µM in test [6]. Moreover, the IC50 was 9.4 ± 0.3 µM in test [7], 42.3 ± 1.1 µM in [8], 38.2 ± 1.8 µM in test [9] and 4.8 to 9.4 µM in test [11]. The MIC in test [10] was found to be 27 µM. This compound showed an MFC in [10] of 27 µM.
As for `CC(=O)Oc1ccc(/C=C/C(=O)OCCCCCCCCCC[P+](c2ccccc2)(c2ccccc2)c2ccccc2)cc1OC(C)=O` [CAP 10, P,P,P-triphenyl-10-{(2E)-3-[3,4-(diacetyloxy)penyl]prop-2-enoyloxy}decane-1-phosphanium bromide], the IC50 in test [2] was determined as 9.2 ± 0.3 µM; in test [3] it was 9.5 ± 0.2 µM; in [4], 91.2 ± 2.6 µM; in [5] it was 8 ± 0.7 µM; in test [6], 4.9 ± 0.5 µM; in test [7], 9 ± 0.5 µM. The IC50 in test [8] is 31.1 ± 2.3 µM; in test [9], 28 ± 1.3 µM; in [11] it was 0.9 to 9.5 µM. 13 µM was the least that counted as inhibitory in test [10] (MIC). For the same compound, the MFC in test [10] came to 13 µM.
Turning to `CC(=O)Oc1ccc(/C=C/C(=O)OCCCCCCCCCCCC[P+](c2ccccc2)(c2ccccc2)c2ccccc2)cc1OC(C)=O` [CAP 12, P,P,P-triphenyl-12-{(2E)-3-[3,4-(diacetyloxy)penyl]prop-2-enoyloxy}dodecane-1-phosphanium bromide], the IC50 is 8.3 ± 0.6 µM in test [2]; 4.9 ± 0.7 µM in test [3]; greater than 100 µM in test [4]; 3.3 ± 1.1 µM in [5]; 3.5 ± 0.6 µM in test [6]; 9 ± 0.5 µM in test [7]. Further, the values for the IC50 in [8], in test [9] and in test [11] were 33.7 ± 1.5 µM, 32.5 ± 0.9 µM and 0.9 to 9.5 µM, respectively. The MIC in test [10] was found to be 25 µM. For the same compound, in [10], the MFC was 25 µM.
